Results taken from US6420131B1, “Use of fluorescein aryl ethers in high throughput cytochrome P450 inhibition assays” (Gentest Corporation, priority 1999, dated 2002).

What was measured:
Rat CYP2C13 = target: T1, Rat CYP2C13 (Rattus norvegicus, UniProt P20814); experiment: Turnover of fluorometric substrates by rat CYP2C13; settings: substrate uM: Ia 2, AMMC 20, CEC 40, MFC 50, BFC 50, BQ 40, BzRes 50; 30 min; enzyme 50 nM
T1 sequence (P20814 1-490): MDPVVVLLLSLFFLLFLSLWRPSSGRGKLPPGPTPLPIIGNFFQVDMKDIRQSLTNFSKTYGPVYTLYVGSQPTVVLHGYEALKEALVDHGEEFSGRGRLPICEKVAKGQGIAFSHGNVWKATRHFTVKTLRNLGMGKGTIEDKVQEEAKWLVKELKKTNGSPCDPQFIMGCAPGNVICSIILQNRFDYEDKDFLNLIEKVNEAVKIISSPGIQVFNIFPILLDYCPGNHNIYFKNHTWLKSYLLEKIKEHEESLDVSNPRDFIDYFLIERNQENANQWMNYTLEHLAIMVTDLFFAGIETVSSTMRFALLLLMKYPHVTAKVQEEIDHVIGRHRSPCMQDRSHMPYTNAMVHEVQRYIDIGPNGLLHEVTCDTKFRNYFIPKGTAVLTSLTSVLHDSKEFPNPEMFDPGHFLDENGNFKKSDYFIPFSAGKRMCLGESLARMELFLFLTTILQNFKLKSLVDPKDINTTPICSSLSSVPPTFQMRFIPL

Rat CYP1A1 = target: T2, Rat CYP1A1 (Rattus norvegicus, UniProt P00185); experiment: Turnover of fluorometric substrates by rat CYP1A1; settings: substrate uM: Ia 2, AMMC 20, CEC 40, MFC 50, BFC 50, BQ 40, BzRes 50; 30 min; enzyme 50 nM (2.5 nM for CEC)
T2 sequence (P00185 1-524): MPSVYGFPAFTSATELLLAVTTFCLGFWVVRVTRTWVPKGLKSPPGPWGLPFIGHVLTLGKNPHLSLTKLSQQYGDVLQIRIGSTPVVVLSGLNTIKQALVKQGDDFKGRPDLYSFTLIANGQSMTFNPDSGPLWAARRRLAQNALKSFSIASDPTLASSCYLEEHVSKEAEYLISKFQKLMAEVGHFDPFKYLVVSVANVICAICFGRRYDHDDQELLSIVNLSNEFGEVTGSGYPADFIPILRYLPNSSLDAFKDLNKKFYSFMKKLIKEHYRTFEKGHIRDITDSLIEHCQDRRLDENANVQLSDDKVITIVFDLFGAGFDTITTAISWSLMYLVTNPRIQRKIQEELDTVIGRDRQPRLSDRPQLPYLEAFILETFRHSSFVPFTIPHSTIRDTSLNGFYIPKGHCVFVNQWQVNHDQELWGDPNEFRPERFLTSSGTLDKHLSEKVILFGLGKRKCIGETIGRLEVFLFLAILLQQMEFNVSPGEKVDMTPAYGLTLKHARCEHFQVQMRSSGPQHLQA

Rat CYP2C6 = target: T3, Rat CYP2C6 (Rattus norvegicus, UniProt P05178); experiment: Turnover of fluorometric substrates by rat CYP2C6; settings: substrate uM: Ia 2, AMMC 20, CEC 40, MFC 50, BFC 50, BQ 40, BzRes 50; 30 min; enzyme 50 nM
T3 sequence (P05178 1-490): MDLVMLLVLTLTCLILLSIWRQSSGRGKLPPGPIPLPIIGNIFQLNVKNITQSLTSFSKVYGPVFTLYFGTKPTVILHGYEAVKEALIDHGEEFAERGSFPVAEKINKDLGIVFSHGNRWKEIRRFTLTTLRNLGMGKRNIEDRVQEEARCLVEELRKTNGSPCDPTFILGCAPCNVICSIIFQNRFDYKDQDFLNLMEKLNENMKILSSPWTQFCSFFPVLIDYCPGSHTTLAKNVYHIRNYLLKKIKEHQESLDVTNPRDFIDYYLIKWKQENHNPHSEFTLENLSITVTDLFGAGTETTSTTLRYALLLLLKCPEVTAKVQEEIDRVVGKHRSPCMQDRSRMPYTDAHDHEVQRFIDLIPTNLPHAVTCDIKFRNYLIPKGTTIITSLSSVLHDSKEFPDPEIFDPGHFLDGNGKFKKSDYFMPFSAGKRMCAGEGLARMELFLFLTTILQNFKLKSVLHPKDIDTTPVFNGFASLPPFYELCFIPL

Rat CYP2D1 = target: T4, Rat CYP2D1 (Rattus norvegicus, UniProt P10633); experiment: Turnover of fluorometric substrates by rat CYP2D1; settings: substrate uM: Ia 2, AMMC 20, CEC 40, MFC 50, BFC 50, BQ 40, BzRes 50; 30 min; enzyme 50 nM
T4 sequence (P10633 1-504): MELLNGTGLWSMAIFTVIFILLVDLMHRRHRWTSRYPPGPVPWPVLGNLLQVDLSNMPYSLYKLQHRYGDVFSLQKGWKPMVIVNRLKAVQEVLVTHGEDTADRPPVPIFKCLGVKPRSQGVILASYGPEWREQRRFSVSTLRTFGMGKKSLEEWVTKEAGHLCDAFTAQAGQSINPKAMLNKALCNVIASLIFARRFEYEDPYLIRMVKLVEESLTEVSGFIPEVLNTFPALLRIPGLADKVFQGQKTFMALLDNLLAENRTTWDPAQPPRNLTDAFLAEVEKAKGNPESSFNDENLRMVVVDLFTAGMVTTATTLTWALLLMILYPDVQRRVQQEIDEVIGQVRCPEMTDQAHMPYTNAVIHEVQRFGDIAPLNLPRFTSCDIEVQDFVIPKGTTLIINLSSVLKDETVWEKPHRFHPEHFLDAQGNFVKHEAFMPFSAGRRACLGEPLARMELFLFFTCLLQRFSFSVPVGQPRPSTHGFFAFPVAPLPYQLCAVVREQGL

Rat CYP1A2 = target: T5, Rat CYP1A2 (Rattus norvegicus, UniProt P04799); experiment: Turnover of fluorometric substrates by rat CYP1A2; settings: substrate uM: Ia 2, AMMC 20, CEC 40, MFC 50, BFC 50, BQ 40, BzRes 50; 30 min; enzyme 50 nM
T5 sequence (P04799 1-513): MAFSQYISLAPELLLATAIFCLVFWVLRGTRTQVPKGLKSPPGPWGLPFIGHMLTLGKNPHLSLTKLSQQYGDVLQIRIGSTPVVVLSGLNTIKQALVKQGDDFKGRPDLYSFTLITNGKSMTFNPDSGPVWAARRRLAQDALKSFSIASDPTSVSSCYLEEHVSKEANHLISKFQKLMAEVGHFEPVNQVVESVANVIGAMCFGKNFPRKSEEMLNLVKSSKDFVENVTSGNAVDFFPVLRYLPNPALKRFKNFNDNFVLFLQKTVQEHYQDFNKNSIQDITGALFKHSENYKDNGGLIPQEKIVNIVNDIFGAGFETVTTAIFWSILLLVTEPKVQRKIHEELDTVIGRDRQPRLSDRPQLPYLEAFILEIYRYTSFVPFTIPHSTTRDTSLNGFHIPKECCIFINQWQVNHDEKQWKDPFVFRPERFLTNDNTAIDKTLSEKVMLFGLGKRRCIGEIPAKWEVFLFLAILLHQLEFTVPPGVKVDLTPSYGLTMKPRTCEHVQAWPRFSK

Row | SMILES | Turnover Numbers, CYP2C13 (Rat CYP2C13) | Turnover Numbers, CYP1A1 (Rat CYP1A1) | Turnover Numbers, CYP2C6 (Rat CYP2C6) | Turnover Numbers, CYP2D1 (Rat CYP2D1) | Turnover Numbers, CYP1A2 (Rat CYP1A2)
1 | O=c1ccc2nc3ccc(OCc4ccccc4)cc3oc-2c1 [BzRes, 7-benzyloxyresorufin] | 0.01 pmol product/min/pmol enzyme | 1.35 pmol product/min/pmol enzyme | 0.02 pmol product/min/pmol enzyme | 0.02 pmol product/min/pmol enzyme | 0.62 pmol product/min/pmol enzyme
2 | CCOc1ccc2cc(C#N)c(=O)oc2c1 [CEC, 7-Ethoxy-3-cyanocoumarin] |  | 78 pmol product/min/pmol enzyme | 2.14 pmol product/min/pmol enzyme |  | 1.38 pmol product/min/pmol enzyme
3 | COc1ccc2c(C(F)(F)F)cc(=O)oc2c1 [MFC, 7-Methoxy-4-trifluoromethylcoumarin] | 0.21 pmol product/min/pmol enzyme | 1.03 pmol product/min/pmol enzyme | 11.5 pmol product/min/pmol enzyme | 0.09 pmol product/min/pmol enzyme | 1.32 pmol product/min/pmol enzyme

Further lines, results first:

Row | Turnover Numbers, CYP2C13 (Rat CYP2C13) | Turnover Numbers, CYP1A1 (Rat CYP1A1) | Turnover Numbers, CYP2C6 (Rat CYP2C6) | Turnover Numbers, CYP2D1 (Rat CYP2D1) | Turnover Numbers, CYP1A2 (Rat CYP1A2) | SMILES
4 | 0.74 pmol product/min/pmol enzyme | 0.34 pmol product/min/pmol enzyme | 2.62 pmol product/min/pmol enzyme | 0.25 pmol product/min/pmol enzyme |  | O=c1cc(C(F)(F)F)c2ccc(OCc3ccccc3)cc2o1 [BFC, 7-Benzyloxy-4-trifluoromethylcoumarin]
5 |  | 5.7 pmol product/min/pmol enzyme | 1.9 pmol product/min/pmol enzyme | 5.3 pmol product/min/pmol enzyme | 2.3 pmol product/min/pmol enzyme | c1ccc(COc2ccc3cccnc3c2)cc1 [BQ, 7-Benzyloxyquinoline]
6 | 0.003 pmol product/min/pmol enzyme | 0.211 pmol product/min/pmol enzyme | 0.021 pmol product/min/pmol enzyme | 0.159 pmol product/min/pmol enzyme | 0.041 pmol product/min/pmol enzyme | O=C(OCc1ccccc1)c1ccccc1-c1c2ccc(=O)cc-2oc2cc(OCc3ccccc3)ccc12 [Compound Ia, O-Benzylfluorescein Benzyl Ester]
